`*C(=O)OC1CC(*)N(C(=O)OCc2ccccc2)C1` (repeat unit) returned a glass transition temperature of 78.00 °C.
On to `*C(=O)OCCCCCCCCCCCCOC(=O)c1ccc2c(c1)C(=O)N(c1ccc(Oc3ccc(N4C(=O)c5ccc(*)cc5C4=O)cc3)cc1)C2=O` (repeat unit), for which the glass transition temperature worked out at 105.00 °C.
For `*C(=O)OCCCCCCCCCOC(=O)c1ccc(N2C(=O)c3ccc(*)cc3C2=O)cc1` (repeat unit), the glass transition temperature came out at 62.00 °C.
Under `*C(=O)OCCCCCCCCOC(=O)c1ccc(N2C(=O)c3ccc(*)cc3C2=O)cc1` (repeat unit) stands 65.00 °C.
Take `*C(=O)OCCCCCCCOC(=O)c1ccc(N2C(=O)c3ccc(*)cc3C2=O)cc1` (repeat unit): the glass transition temperature is 77.00 °C.
With `*CC(F)(F)C(F)(F)C(F)(F)C(F)(F)COC(=O)O*` (repeat unit), the glass transition temperature is -41.00 °C.
Under `*CC(F)(F)C(F)(F)C(F)(F)COC(=O)c1cccc(-c2cccc(C(=O)O*)c2)c1` (repeat unit) stands 45.00 °C; under `*CC(F)(F)C(F)(F)C(F)(F)COC(=O)c1cccc(C(F)(F)C(F)(F)C(F)(F)C(F)(F)C(F)(F)c2cccc(C(=O)O*)c2)c1` (repeat unit), 29.00 °C; under `*CC(O)C(O)COC(=O)O*` (repeat unit), 39.60 °C.
As for `*CC(O)COc1ccc(C(=O)c2ccc(O*)cc2)cc1` (repeat unit), the glass transition temperature is 130.00 °C.
Regarding `*CC1CCC(COC(=O)C2CCC(C(=O)O*)CC2)CC1` (repeat unit), the glass transition temperature turned out to be 77.00 °C.
The compound `*CC1CCC(COC(C)OC(=O)c2ccc(C(=O)OC(C)O*)c3ccccc23)CC1` (repeat unit) had a glass transition temperature of 60.00 °C.
`*CC1CCC(COC(C)OC(=O)c2ccc(C(=O)OC(C)O*)cc2)CC1` (repeat unit): the glass transition temperature was determined as 61.00 °C.
The compound `*CCCC(=O)NNC(=O)c1ccc(C(=O)NNC(=O)CCCOc2ccc(O*)c(C)c2)cc1` (repeat unit) displayed a glass transition temperature of 139.00 °C.
Compound `*CCCCCC(=O)NNC(=O)c1ccc(C(=O)NNC(=O)CCCCCOc2ccc(O*)c(C)c2)cc1` (repeat unit) yielded a glass transition temperature of 126.00 °C.
The figure for `*CCCCCCCCCCCCOC(=O)c1ccc(-c2ccc(C(=O)O*)cc2)cc1` (repeat unit) is 50.50 °C.
For the compound `*CCCCCCCCCCCOC(=O)c1ccc2cc(C(=O)O*)ccc2c1` (repeat unit), the glass transition temperature amounted to 43.00 °C.
`*CCCCCCCCCCOC(=O)c1ccc2cc(C(=O)O*)ccc2c1` (repeat unit) returned a glass transition temperature of 50.50 °C.
As for `*CCCCCCCCCCOC(=O)c1cccc(C(=O)O*)c1` (repeat unit), the glass transition temperature is -22.50 °C.
Take `*CCCCCCCCCCOc1ccc(/C=C/c2ccc(OCCCCCCCCCCOP(=O)(O*)OCCCCCCCCCCOc3ccc(/N=N/c4ccc(Cl)cc4)cc3)cc2)cc1` (repeat unit): the glass transition temperature was 60.00 °C.
`*CCCCCCCCCCOc1ccc(/C=C2\CC/C(=C\c3ccc(OCCCCCCCCCCOP(=O)(O*)OCC)c(OC)c3)C2=O)cc1OC` (repeat unit) returned a glass transition temperature of 47.00 °C.
The figure for `*CCCCCCCCCOC(=O)c1ccc(C(=O)O*)cc1` (repeat unit) is 35.00 °C.
The compound `*CCCCCCCOC(=O)c1ccc2cc(C(=O)O*)ccc2c1` (repeat unit) yielded a glass transition temperature of 52.50 °C.
Consider `*CCCCCCOC(=O)OCCCCCCCCCCOC(=O)OCCCCCCOc1ccc(C(=O)c2ccc(O*)cc2)cc1` (repeat unit), for which the glass transition temperature was -13.00 °C.
As to `*CCCCCCOC(=O)OCCCCCCCCCCOC(=O)OCCCCCCn1c(=O)c2cc3c(=O)n(*)c(=O)c3cc2c1=O` (repeat unit), the glass transition temperature is -2.00 °C.
Take `*CCCCCCOC(=O)OCCCCCCCCCOC(=O)OCCCCCCOc1ccc(C(=O)c2ccc(O*)cc2)cc1` (repeat unit): the glass transition temperature is -6.00 °C.
The figure for `*CCCCCCOC(=O)OCCCCCCCCOC(=O)OCCCCCCOc1ccc(C(=O)c2ccc(O*)cc2)cc1` (repeat unit) is -7.70 °C; for `*CCCCCCOC(=O)OCCCCCCN1C(=O)c2ccc(-c3ccc4c(c3)C(=O)N(*)C4=O)cc2C1=O` (repeat unit) it is 71.00 °C; for `*CCCCCCOC(=O)OCCCCCCN1C(=O)c2ccc(C(=O)c3ccc4c(c3)C(=O)N(*)C4=O)cc2C1=O` (repeat unit) it is 76.00 °C.
Turning to `*CCCCCCOC(=O)OCCCCCCOC(=O)OCCCCCCOc1ccc(C(=O)c2ccc(O*)cc2)cc1` (repeat unit), the glass transition temperature is -0.30 °C.
Regarding `*CCCCCCOC(=O)OCCCCCCOC(=O)OCCCCCCn1c(=O)c2cc3c(=O)n(*)c(=O)c3cc2c1=O` (repeat unit), the glass transition temperature worked out at 17.00 °C.
With `*CCCCCCOC(=O)OCCCOC(=O)OCCCCCCN1C(=O)c2ccc(C(=O)c3ccc4c(c3)C(=O)N(*)C4=O)cc2C1=O` (repeat unit), the glass transition temperature is 61.00 °C.
The compound `*CCCCCOc1ccc(C(=O)OC(=O)c2ccc(O*)cc2)cc1` (repeat unit) registered a glass transition temperature of 53.00 °C.
As for `*CCOCCOc1ccc(C(=O)OC(=O)c2ccc(O*)cc2)cc1` (repeat unit), the glass transition temperature was determined as 41.00 °C.
For `*CCOc1ccc(C(=O)OC(=O)c2ccc(O*)cc2)cc1` (repeat unit), the glass transition temperature was 45.00 °C.
`*COCOc1ccc(C(=O)OC(=O)c2ccc(O*)cc2)cc1` (repeat unit) came in with a glass transition temperature of 57.00 °C.
Under `*COc1ccc(C(=O)OC(=O)c2ccc(O*)cc2)cc1` (repeat unit) stands 84.00 °C; under `*Nc1c(C)c(C)c(C(=O)c2ccc(NC(=O)c3ccc(C(*)=O)cc3)cc2)c(C)c1C` (repeat unit), 366.00 °C.
With `*OC(=O)OCCCCCCOC(=O)OC1COC2C(*)COC12` (repeat unit), the glass transition temperature came out at 27.50 °C.
As to `*OC(=O)c1ccc(SCCCCSc2ccc(C(*)=O)cc2)cc1` (repeat unit), the glass transition temperature was determined as 62.00 °C.
Compound `*OC(=O)c1cccc(C(=O)OC2CC3CC(*)CC(C2)O3)c1` (repeat unit) displayed a glass transition temperature of 113.00 °C.
The compound `*OC(CCl)C(*)CCl` (repeat unit) showed a glass transition temperature of 95.00 °C.
As to `*OC(F)(C(*)(F)F)C(F)(F)F` (repeat unit), the glass transition temperature is -73.00 °C.
`*OC(F)(F)COC(=O)c1cccc(C(=O)OCC(*)(F)F)c1` (repeat unit) registered a glass transition temperature of 28.00 °C.
`*OC1C(CO)OC(*)C(NC(C)=O)C1O` (repeat unit) returned a glass transition temperature of 154.60 °C.
Turning to `*OC1C(COC(C)=O)OC(*)C(OC(C)=O)C1O` (repeat unit), the glass transition temperature came out at 202.00 °C.
`*OC1CCC(OC(=O)OCCCCCCOC(*)=O)CC1` (repeat unit) returned a glass transition temperature of 10.00 °C.
Under `*ON(C(F)(F)F)C(F)(C(*)(F)F)C(F)(F)F` (repeat unit) stands -9.00 °C; under `*ON(C(F)(F)F)C(F)(F)C(*)(F)F` (repeat unit), -46.00 °C; under `*OP(=O)(Oc1ccccc1)OC(CCl)COc1ccc(S(=O)(=O)c2ccc(OCC(*)CCl)cc2)cc1` (repeat unit), 48.00 °C.
Compound `*O[Si](C)(C)O[Si](C)(C)O[Si](C)(C)O[Si](C)(C)O[Si](C)(C)OC1=C(*)c2cccc3cccc1c23` (repeat unit) returned a glass transition temperature of -54.00 °C.
`*Oc1cc(CCC)cc(OC(=O)c2cccc(C(*)=O)c2)c1` (repeat unit) returned a glass transition temperature of 129.00 °C.
In the case of `*Oc1cc(CCCCCCCCCCC)cc(OC(=O)c2cccc(C(*)=O)c2)c1` (repeat unit), the glass transition temperature is 34.50 °C.
Turning to `*Oc1cc(CCCCCCCCCCCCC)cc(OC(=O)c2cccc(C(*)=O)c2)c1` (repeat unit), the glass transition temperature turned out to be 25.50 °C.
For the compound `*Oc1ccc(-c2ccc(OC(=O)c3ccc(Oc4ccc(C5(c6ccc(Oc7ccc(C(*)=O)cc7)cc6)CCC(C(C)(C)C)CC5)cc4)cc3)cc2C)c(C)c1` (repeat unit), the glass transition temperature amounted to 163.00 °C.
Regarding `*Oc1ccc(Cc2ccc(OC(=O)OCC3CCC(COC(*)=O)CC3)cc2)cc1` (repeat unit), the glass transition temperature stood at 56.90 °C.
Under `*Oc1ccc(OC(=O)c2ccc(Sc3cccc(OC(=O)c4ccc(C(=O)Oc5cccc(Sc6ccc(C(*)=O)cc6)c5)cc4)c3)cc2)cc1C` (repeat unit) stands 135.00 °C.
Compound `*Oc1cccc(C(=O)OCC(F)(F)C(F)(F)C(F)(F)COC(=O)c2cccc(*)c2)c1` (repeat unit) had a glass transition temperature of 20.00 °C.
`*c1ccc(C(=O)OCCCCCCCCCCOc2ccc(/C=C3\CC/C(=C\c4ccc(OCCCCCCCCCCOC(=O)c5ccc(-c6nnc(*)o6)cc5)cc4)C3=O)cc2)cc1` (repeat unit) came in with a glass transition temperature of 58.00 °C.
Under `*c1ccc(C(=O)OCCCCCCCCOc2ccc(/C=C3\CCC/C(=C\c4ccc(OCCCCCCCCOC(=O)c5ccc(-c6nnc(*)o6)cc5)cc4)C3=O)cc2)cc1` (repeat unit) stands 59.00 °C.
On to `*c1ccc(C(=O)OCCCCCCCCOc2ccc(/C=C3\CCCC/C(=C\c4ccc(OCCCCCCCCOC(=O)c5ccc(-c6nnc(*)o6)cc5)cc4)C3=O)cc2)cc1` (repeat unit), for which the glass transition temperature turned out to be 98.00 °C.
The figure for `*c1ccc(Oc2ccc(C(=O)c3ccc(Oc4ccc(-c5c6c(c(*)c7ccccc57)C(=O)N(c5ccc(F)cc5)C6=O)cc4)cc3)cc2)cc1` (repeat unit) is 290.00 °C.
On to `*c1ccc(Oc2ccc(C(=O)c3ccc(Oc4ccc(-c5c6c(c(*)c7ccccc57)C(=O)N(c5ccccc5F)C6=O)cc4)cc3)cc2)cc1` (repeat unit), for which the glass transition temperature stood at 282.00 °C.
`*c1ccc(Oc2ccc(C(=O)c3ccc(Oc4ccc(-c5cc(*)n(-c6ccccc6)n5)cc4)cc3)cc2)cc1` (repeat unit) gave a glass transition temperature of 205.00 °C.
In turn, `*c1ccc(Oc2ccc(C(=O)c3ccc(Oc4ccc(-c5nc(-c6ccccc6)[nH]c5*)cc4)cc3)cc2)cc1` (repeat unit) displayed a glass transition temperature of 259.00 °C.

The values are drawn from the PolyMetriX glass transition set.
